IC50 data for 66 compounds are collected here from patent US8575197B2, “Pyrolinone derivative and pharmaceutical composition comprising the same” (Shionogi & Co., Ltd., priority 2008, dated 2013).

The target in the test is human P2X3 receptor (Homo sapiens (Human), UniProt P56373). Nature of the test: P2X3 receptor inhibition, ATP-evoked Fluo-3 calcium fluorescence (FDSS 3000). The test is classed as cell-based. The conditions noted are these: C6BU-1 cell transfected with human P2X3 receptor gene; ATP-evoked Fluo-3 fluorescence. In short, it runs like this: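 C6BU-1 cells stably transfected with human P2X3, loaded with 4 μM Fluo-3-AM for 1 h at 37 °C in HEPES buffer pH 7.5 with probenecid. Compound added 5 min before 40 nM ATP solution; fluorescence followed 3 min. IC50 from ratio of peak post-ATP to baseline fluorescence.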
human P2X3 receptor, sequence (P56373 whole entry): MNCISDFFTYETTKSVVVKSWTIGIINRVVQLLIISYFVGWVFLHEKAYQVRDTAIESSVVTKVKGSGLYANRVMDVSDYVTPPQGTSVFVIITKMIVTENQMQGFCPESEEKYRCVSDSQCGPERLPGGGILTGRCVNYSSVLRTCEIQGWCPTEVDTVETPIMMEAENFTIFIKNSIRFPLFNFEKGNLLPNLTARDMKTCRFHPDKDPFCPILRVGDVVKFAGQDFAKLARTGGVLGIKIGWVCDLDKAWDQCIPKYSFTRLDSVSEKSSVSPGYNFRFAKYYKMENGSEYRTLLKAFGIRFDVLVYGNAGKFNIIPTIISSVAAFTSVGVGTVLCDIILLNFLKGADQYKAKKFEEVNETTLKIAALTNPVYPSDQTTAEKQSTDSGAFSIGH

pIC50: −log10 of the molar value.

On to `COc1ncccc1C1c2c(C(C)(C)C)n[nH]c2C(=O)N1c1ccc(-c2ccoc2)cn1` (stereo not drawn) [II-261], for which the negative logarithm of the IC50 (pIC50) was 6.85.
Regarding `CC(C)(C)c1n[nH]c2c1C(c1cccnc1OCCO)N(c1ccc(-c3cccs3)cc1)C2=O` (stereo not drawn) [II-042], the pIC50 is 8.00.
With `COc1ncccc1C1C(C(=O)CC(C)(C)C)=C(O)C(=O)N1c1ccc(-c2ccsc2)cc1` (stereo not drawn) [Compound I-462] the figure was 6.37.
Then `COc1ccc(C(=O)C2=C(O)C(=O)N(c3nc4ccc(OC)cc4s3)C2c2ccccc2OCCO)cc1` (stereo not drawn) [Compound I-126], with 7.82; and `COc1ccccc1C1C2C(=O)C(C)(C)COC2(O)C(=O)N1c1ccc(-c2ccsc2)cn1` (stereo not drawn) [Compound I-095], with 6.71; and `COCCOc1ncccc1C1C(C(=O)C(C)(C)C)=C(O)C(=O)N1c1ccc(-c2cccs2)cc1` (stereo not drawn) [Compound I-149], with 7.82.
Then `COCCOc1cc(F)ccc1C1C(C(=O)CC(C)C)=C(O)C(=O)N1c1ccc(-c2noc(C)n2)cc1` (stereo not drawn) [Compound I-365], with 7.09.
For `Cc1ccc(-c2ccc(N3C(=O)C(O)=C(C(=O)C(C)C)C3c3ccccc3S(C)(=O)=O)cc2)o1` (stereo not drawn) [Compound I-548], the negative logarithm of the IC50 (pIC50) was 7.11.
With `COCc1ccccc1[C@@H]1C(C(=O)C(C)C)=C(O)C(=O)N1c1ccc(-c2cccs2)cc1` [Compound I-394] the figure was 7.96.
With `COc1ncccc1C1c2c(C(C)(C)C)n[nH]c2C(=O)N1c1ccc(SC)cc1` (stereo not drawn) [II-007] the figure was 7.21.
Then `Cc1cc(-c2ccc(N3C(=O)c4[nH]nc(C(C)(C)C)c4C3c3ccccc3OCCO)cc2)on1` (stereo not drawn) [II-015], with 7.06; and `CC(C)c1n[nH]c2c1C(c1ccccn1)N(c1ccc(-c3ccsc3)cc1)C2=O` (stereo not drawn) [II-233], with 7.04.
In the case of `Cc1cc(-c2ccc(N3C(=O)C(O)=C(C(=O)C(C)C)C3c3ccccc3C(=O)N(C)C)cc2)cs1` (stereo not drawn) [Compound I-409], the pIC50 is 6.75.
Then `COc1ccc(C(=O)C2=C(O)C(=O)N(c3ccc(C4=NCCS4)cc3)C2c2ccccc2OC)cc1` (stereo not drawn) [Compound I-028], with 7.12.
In the case of `CC(C)c1n[nH]c2c1C(c1ccccc1C(N)=O)N(c1ccc(-c3ccsc3)cc1)C2=O` (stereo not drawn) [II-090], the negative-log IC50 (pIC50) was 8.70.
With `COc1ncccc1C1c2c(C(C)(C)CO)n[nH]c2C(=O)N1c1ccc(-c2cccs2)cc1` (stereo not drawn) [II-110] the figure was 7.62; with `COCCOc1ccccc1C1C(C(=O)C(C)(C)C)=C(O)C(=O)N1c1ccc(SC)cc1` (stereo not drawn) [Compound I-130], 6.32.
Then `CCCC(CCC)C1C(C(=O)c2ccc(CO)cc2)=C(O)C(=O)N1c1ccc(-c2ccon2)cc1` (stereo not drawn) [Compound I-006], with 7.57; and `Cc1nc(-c2ccc(N3C(=O)C(O)=C(C(=O)C(C)C)C3c3ccccc3COC(C)C)cc2)no1` (stereo not drawn) [Compound I-539], with 7.21; and `COc1ccc(C(=O)C2=C(O)C(=O)N(c3ccc(-c4noc(C)n4)cc3)C2c2ccccc2OC)cc1` (stereo not drawn) [Compound I-030], with 7.28.
With `COc1cc(N2C(=O)C(O)=C(C(=O)C(C)C)C2c2ccccc2OC)ccc1-c1ccsc1` (stereo not drawn) [Compound I-221] the figure was 7.09.
Regarding `COc1ccccc1C1c2c(C(C)C)n[nH]c2C(=O)N1c1ccc(-c2ccsc2)c(C)c1` (stereo not drawn) [II-239], the negative-log IC50 (pIC50) is 6.69.
With `CC(C)(C)C(=O)C1=C(O)C(=O)N(c2ccc(-c3ccsc3)cc2)C1c1ccccc1OCC#N` (stereo not drawn) [Compound I-180] the figure was 8.30; with `COCCOc1ncccc1C1C(C(=O)C(C)C)=C(O)C(=O)N1c1ccc(-c2ccsc2)cc1` (stereo not drawn) [Compound I-169], 7.72.
Take `COc1ccccc1C1c2c(C(C)(C)C(=O)O)n[nH]c2C(=O)N1c1ccc(-c2cccs2)cc1` (stereo not drawn) [II-163]: the negative logarithm of the IC50 (pIC50) was 7.47.
With `COc1ncccc1C1c2c(C(C)(C)C)n[nH]c2C(=O)N1c1ccc(-c2ccsc2)cc1` (stereo not drawn) [II-223], the pIC50 was 7.64.
On to `COc1ccc(-c2n[nH]c3c2C(C2CCCCC2)N(c2ccc4[nH]ccc4c2)C3=O)cc1` (stereo not drawn) [II-055], for which the pIC50 was 6.26.
With `COc1ccccc1C1c2c(C(C)(C)CO)n[nH]c2C(=O)N1c1ccc(-c2nc(C)no2)cc1` (stereo not drawn) [II-138] the figure was 7.36; with `COc1ccccc1C1c2c(C(C)(C)C)n[nH]c2C(=O)N1c1ccc(CN(C)C)cc1` (stereo not drawn) [II-072], 6.13.
Then `Cc1cc(-c2ccc(N3C(=O)C(O)=C(C(=O)CC(C)C)C3c3ccccc3OC(F)(F)F)cc2)on1` (stereo not drawn) [Compound I-344], with 6.23.
Take `C/N=C1/CC(C)(C)C(=O)OC2=C1C(c1ccccc1OC)N(c1ccc(-c3ccsc3)cc1)C2=O` (stereo not drawn) [Compound I-587]: the pIC50 was 6.43.
As to `CCNC(=O)c1ccc(C(=O)C2=C(O)C(=O)N(c3ccc(-c4ccon4)cc3)C2C(CC)CC)cc1` (stereo not drawn) [Compound I-004], the negative-log IC50 (pIC50) was 7.92.
As to `COc1ccccc1C1c2c(C(C)(C)C)n[nH]c2C(=O)N1c1ccc(-c2cc(NC(C)=O)no2)cc1` (stereo not drawn) [II-147], the pIC50 was 6.01.
Then `CC(C)C(=O)C1=C(O)C(=O)N(c2ccc(-c3ccsc3)cc2)C1c1ccccc1OCCN(C)C` (stereo not drawn) [Compound I-158], with 7.64.
Then `CC(C)(C)C(=O)C1=C(O)C(=O)N(c2ccc(-c3ccco3)cc2)C1c1cccnc1OCCO` (stereo not drawn) [Compound I-173], with 6.86; and `COc1ccccc1C1C(C(=O)C(C)(C)C)=C(O)C(=O)N1c1ccc(-c2cc[nH]c2)cc1` (stereo not drawn) [Compound I-094], with 6.52; and `CC(C)C(=O)C1=C(O)C(=O)N(c2ccc(-c3ccsc3)cc2)C1c1ccccc1OCCN(C)C` (stereo not drawn) [Compound I-157], with 7.60.
Then `COCCOc1ncccc1C1C(C(=O)C(C)C)=C(O)C(=O)N1c1ccc(SC)cc1` (stereo not drawn) [Compound I-485], with 6.66; and `COCCOc1ccccc1C1C(C(=O)CC(C)C)=C(O)C(=O)N1c1ccc(-c2csc(C)c2)cc1` (stereo not drawn) [Compound I-375], with 7.52; and `Cc1nc(-c2ccc(N3C(=O)C(O)=C(C(=O)C(C)C)C3c3ccccc3CCC(N)=O)cc2)no1` (stereo not drawn) [Compound I-592], with 6.08.
On to `CC(C)c1n[nH]c2c1C(c1ccccc1OCC#N)N(c1ccc(-c3ccsc3)cc1)C2=O` (stereo not drawn) [II-127], for which the negative logarithm of the IC50 (pIC50) is 8.40.
Consider `COCc1ccccc1[C@@H]1C(C(=O)C(C)C)=C(O)C(=O)N1c1ccc(-c2ccc(C)s2)cc1` [Compound I-393], for which the negative logarithm of the IC50 (pIC50) was 7.82.
Then `COc1ccc(F)cc1C1C(C(=O)C(C)C)=C(O)C(=O)N1c1ccc(-c2csc(C)c2)cc1` (stereo not drawn) [Compound I-453], with 7.39.
Then `COCc1ccccc1C1C(C(=O)C(C)C)=C(O)C(=O)N1c1ccc(C2=CCCC2)cc1` (stereo not drawn) [Compound I-527], with 7.41; and `CC(C)CC(=O)C1=C(O)C(=O)N(c2ccc(-c3ccon3)cc2)C1c1ccccc1OC(F)F` (stereo not drawn) [Compound I-307], with 6.80; and `COc1ccccc1C1c2c(C(=O)N(C)C)n[nH]c2C(=O)N1c1ccc(-c2ccsc2)cc1` (stereo not drawn) [II-180], with 6.58.
As to `COCc1ccccc1C1C(C(=O)C(C)C)=C(O)C(=O)N1c1ccc(SC)cc1` (stereo not drawn) [Compound I-477], the pIC50 is 6.32.
Then `COCc1ccccc1C1C(C(=O)C(C)C)=C(O)C(=O)N1c1ccc(-c2ccco2)cc1` (stereo not drawn) [Compound I-354], with 7.24; and `COc1ccccc1C1C(C(=O)C(C)C)=C(O)C(=O)N1c1ccc(-c2ccc(C)s2)cc1` (stereo not drawn) [Compound I-259], with 7.52.
Then `COCCCOc1ncccc1C1C(C(=O)C(C)C)=C(O)C(=O)N1c1ccc(-c2ccc(C)s2)cc1` (stereo not drawn) [Compound I-569], with 7.46.
With `Cc1nc(-c2ccc(NC3=CC(C4CCCCC4)N(c4ccc(-c5noc(C)n5)cc4)C3=O)cc2)no1` (stereo not drawn) [Compound I-469], the negative logarithm of the IC50 (pIC50) is 6.19.
With `COc1ccccc1C1c2c(C(C)(C)CO)n[nH]c2C(=O)N1c1ccc(N(C)C)cc1` (stereo not drawn) [II-011] the figure was 6.50; with `COCc1ccccc1C1c2c(C(C)(C)C)n[nH]c2C(=O)N1c1ccc(-c2noc(C)n2)cc1` (stereo not drawn) [II-069], 6.38.
Turning to `Cc1nc(-c2ccc(N3C(=O)C(O)=C(C(=O)C(C)C)C3c3ccccc3OCCCO)cc2)no1` (stereo not drawn) [Compound I-444], the pIC50 is 6.76.
Turning to `COCCN(C)C(=O)c1ccccc1C1C(C(=O)C(C)C)=C(O)C(=O)N1c1ccc(-c2ccc(C)o2)cc1` (stereo not drawn) [Compound I-586], the pIC50 is 6.60.
Consider `CC(C)CC(=O)C1=C(O)C(=O)N(c2ccc(-c3ccoc3)cc2)C1c1ccccc1OC(F)(F)F` (stereo not drawn) [Compound I-343], for which the negative logarithm of the IC50 (pIC50) was 7.11.
On to `COCCOc1ccccc1C1C(C(=O)C(C)C)=C(O)C(=O)N1c1ccc(-c2csc(C)c2)cc1` (stereo not drawn) [Compound I-261], for which the negative logarithm of the IC50 (pIC50) was 7.72.
Regarding `CSc1ccc(N2C(=O)C(O)=C(C(=O)CC(C)C)C2c2ccccc2OC(C)C)cc1` (stereo not drawn) [Compound I-436], the negative-log IC50 (pIC50) is 7.38.
For `CC(C)C(=O)C1=C(O)C(=O)N(c2ccc(-c3ccsc3)cc2)C1c1cccnc1N1CCOCC1` (stereo not drawn) [Compound I-525], the pIC50 was 7.74.
Take `Cc1ccc(-c2ccc(N3C(=O)C(O)=C(C(=O)CC(C)C)C3c3cccnc3C(N)=O)cc2)s1` (stereo not drawn) [Compound I-572]: the pIC50 is 6.77.
As to `COCCOc1ccccc1C1C(C(=O)CC(C)C)=C(O)C(=O)N1c1ccc(-c2ccon2)cc1` (stereo not drawn) [Compound I-309], the negative logarithm of the IC50 (pIC50) is 6.74.
In the case of `CC(C)c1n[nH]c2c1C(c1ccccc1OC(CO)CO)N(c1ccc(-c3ccsc3)cc1)C2=O` (stereo not drawn) [II-236], the pIC50 was 8.30.
Then `CC(C)c1n[nH]c2c1C(c1cccnc1OCC(N)=O)N(c1ccc(-c3ccsc3)cc1)C2=O` (stereo not drawn) [II-054], with 7.59.
Then `COCCCOc1ccccc1C1C(C(=O)CC(C)C)=C(O)C(=O)N1c1ccc(-c2noc(C)n2)cc1` (stereo not drawn) [Compound I-492], with 6.98; and `COc1ccccc1C1c2c(C(C)(C)CO)n[nH]c2C(=O)N1c1ccc(-c2ccoc2)cn1` (stereo not drawn) [II-250], with 7.37; and `COCc1ccccc1[C@@H]1C(C(=O)C(C)C)=C(O)C(=O)N1c1ccc(-c2ccsc2)cc1` [Compound I-255], with 8.10.

The pIC50 is the negative decadic logarithm of the IC50, by convention in mol/L.
